In data set [1] the target is MGL, Ser339Ala (Citrobacter freundii, UniProt Q84AR1, S339A). In words: biochemical. Type of data set: biochemical. The protocol: The kinetic parameters of the γ- and β-elimination reactions were determined at 30°C in the conjugate reaction with HOHxoDH or LDH based on a decrease in NADH absorbance at 340 nm (Δε = 6,220 M^–1cm^–1). The reaction mixtures contained a 100-mM potassium phosphate buffer, pH 8.0, 0.1 mM PLP, 1 mM DTT, 0.2 mM NADH, 70 μg HOHxoDH or 10 U LDH, and variable amounts of the substrate in a total volume of 1 mL. The reaction was initiated by the addition of 10 μg of the enzyme.
The kinetic parameters were calculated according to the Michaelis–Menten equation using the EnzFitter software. In the calculations, an enzyme subunit molecular weight of 43 kDa was used. The inhibition constants were also determined using the EnzFitter software.

In data set [2] the target is Ser339Ala MGL (Citrobacter freundii, UniProt Q84AR1, S339A). In words: coenzyme (PLP) dissociation constant by ultrafiltration, Ser339Ala MGL apoenzyme. As to conditions: mutant enzyme, pH 8.0, 30°C, Scatchard coordinates. It is filed as binding. As for the experimental part:
The apoenzyme and holoenzyme were prepared in a 50-mM potassium phosphate buffer, pH 8.0, containing 1 mM DTT and 1 mM EDTA. The holoenzyme was prepared by adding a 50-fold molar excess of PLP. The mixture was incubated at 25°C for 1 h. The excess PLP was removed by dialysis. The apoenzyme was prepared by adding a 100-fold molar excess of DL-penicillamine to the sample [42]. The mixture was incubated at 25°C for 1 h. DL-Penicillamine was removed by dialysis. The procedure was repeated until the enzyme activity decreased to 1% of the initial activity. The PLP content in the sample was determined in 100 mM NaOH using the molar extinction coefficient of PLP at 390 nm (ε = 6,600 M^–1cm^–1 [43]).
The PLP dissociation constant was determined by ultrafiltration. Varying amounts of PLP (in a range of 5 × 10^–3 to 1.2 × 10^–1 mM) were added to the 8 × 10^–3 mM apoenzyme in a 50-mM potassium phosphate buffer, pH 8.0, containing 1 mM DTT and 1 mM EDTA. After incubation at 30°C for 30 min, free PLP was separated by centrifugation in a Centricon-30 microconcentrator (Amicon, United States) at 5,000 rpm and 4°C for 5 min. The PLP content in each sample was determined in 100 mM NaOH. The data were processed in Scatchard coordinates.

Data set [3] concerns CSCC[C@H](N)C(=O)O. The experiment in a line: purified protein, by the assay type. The note with it: other: Ser339Ala MGL, 30°C, pH 8.0, coupled with HOHxoDH or LDH.

In the case of `C[C@H](N)C(=O)O` [L-Ala, L-alanine], in data set [1], the affinity, expressed as Ki, was 1250 ± 320 µM.

As to `Cc1ncc(COP(=O)(O)O)c(C=O)c1O` [PLP, pyridoxal 5’-phosphate], the dissociation constant (Kd) – broadly, a measure of binding affinity in units of concentration – in data set [2] came to 1.01 µM.

Regarding “MGL, Ser339Ala (Citrobacter freundii; S339A)”, in data set [3], the Michaelis-Menten constant (Km) (commonly the substrate concentration at which the rate is half of its maximum) is 1840 ± 150 µM; the catalytic constant (kcat) (in general, the number of substrate molecules converted per active site and unit of time at saturation) was determined as 0.21 s⁻¹.
